Patent publication US9181253B2 (The United States of America, as represented by the …, priority 2008, dated 2015)
Values joined by “and” are separate entries in the source; they are usually repeats but may differ in a detail not shown here. Equal entries are not always repeated. Marks after values point to notes of the source that are not given here.

Columns and labels:
human A2A receptors = human A2A receptors (Homo sapiens (Human), UniProt P29274); experiment: Binding assay at human A2A receptors (Example 2); conditions: HEK cells expressing human A2AAR; radioligand [3H]CGS21680; n = 3-5; read-out: Affinity (Ki, nM) A2A
human A3AR = human A3AR (Homo sapiens (Human), UniProt P0DMS8); experiment: [35S]GTPγS binding assay, membranes of CHO cells expressing human A3AR; type: biochemical; conditions: stimulation measured by [35S]GTPγS binding assay
human A1 receptors = human A1 receptors (Homo sapiens (Human), UniProt P30542); experiment: Binding assay at human A1 receptors (Example 2); conditions: CHO cells expressing human A1AR; radioligand [3H]CCPA or [3H]R-PIA; n = 3-5; read-out: Affinity (Ki, nM) A1
hA1AR [1] = biological target: T1, hA1AR (Homo sapiens (Human), UniProt P30542); experiment: A1AR functional assay, inhibition of forskolin-stimulated cyclic AMP production in AR-transfected CHO cells; type: cell-based; conditions: for inhibition at 10 µM: CHO, read-out: % Inhibition, cyclic AMP A1
hA2AAR = hA2AAR (Homo sapiens (Human), UniProt P29274); experiment: Radioligand membrane binding at hA2AAR (Example 6); conditions: for Ki: HEK293 cells expressing hA2AAR, [3H]CGS21680, n = 3-5, read-out: Affinity Ki, nM A2A
Protocol: (§1) In addition, 800 μg/mL Geneticin and 500 μg/mL hygromycin were added to the A2A media and to the A1 and A3 media, respectively. […] The concentration of protein was determined using a BCA Protein Assay Kit from Pierce Biotechnology (Rockford, Ill.).
(§2) Radioligand binding assays at A1, A2A, and A3ARs were performed according to the procedures described previously.
(§3) All of the filters were washed 3 times with Tris-HCl, pH 7.5. […] Filters for A3AR binding were counted using a PerkinElmer Cobra II γ-counter.
(§4) Binding and functional parameters were calculated using Prism 5.0 software (GraphPAD, San Diego, Calif., USA). IC50 values obtained from competition curves were converted to Ki values using the Cheng-Prusoff equation. Data were expressed as mean±standard error.

hA1AR [2] = biological target: T1, hA1AR; experiment: Radioligand membrane binding at hA1AR (Example 6); conditions: CHO cells expressing hA1AR; [3H]R-PIA; n = 3-5; read-out: Affinity Ki, nM A1
Protocol: as §1, §2, §3, §4

hA3AR = hA3AR (Homo sapiens (Human), UniProt P0DMS8); experiment: Radioligand membrane binding at hA3AR (Example 6); conditions: CHO cells expressing hA3AR; [125I]I-AB-MECA; n = 3-5; read-out: Affinity Ki, nM A3
[3] = system: s.c. metrazol seizures in mice; experiment: s.c. metrazol (scMET) seizure test; type: in vivo; conditions: i.p., 1 mg/kg
Description: In vivo anticonvulsant activity was established by both electrical and chemoconvulsant seizure tests which have been described previously. White, H. S., et al., Ital. J. Neurol. […] White, H. S. et al., Antiepileptic Drugs ([…].; Meldrum, B. S. ed), 1995, pp 99-110, Raven Press, New York.; and Smith, M., et al., Neurotherapeutics 2007, 4, 12-17. The electrical tests used were the maximal electroshock (MES) seizure test, the 6 Hz minimal clonic seizure test, and the corneal kindled mouse test. The chemical test was the s.c. metrazol seizure tests. Time of peak effect (TPE) is deduced from data generated in initial qualitative test procedures. […] The time point at which the compound produces the most activity/toxicity was chosen as TPE.

[4] = system: seizures induced by 6 Hz corneal stimulation in mice; experiment: 6 Hz minimal clonic seizure test; type: in vivo; conditions: mice, i.p., measured at 1 h post injection
Protocol: (§5) For the MES and 6 Hz tests, a drop of anesthetic/electrolyte solution (0.5% tetracaine hydrochloride in 0.9% saline) was applied to the eyes of each animal prior to placement of the corneal electrodes. The electrical stimulus in the MES test was 50 mA, 60 Hz, for mice. Abolition of the hindleg tonic extensor component of the seizure was used as the endpoint.
The ability of the test substance to prevent seizures induced by 6 Hz corneal stimulation (32 mA, 3 sec duration) in mice was evaluated at a convulsive current that evokes a seizure in 97% of the population tested (CC97). Six Hz seizures are characterized by a minimal clonic phase that is followed by stereotyped, automatistic behaviors described originally as being similar to the aura of human patients with partial seizures. Toman, J. E. et al., Tex. Rep.
Animals not displaying this behavior were considered protected.

mice = experiment: Minimal behavioral toxicity test, rotorod procedure; conditions: i.p., measured at 1 h post injection
MES seizures in mice = experiment: Maximal electroshock (MES) seizure test; type: in vivo; conditions: i.p., 1 mg/kg
Protocol: The electrical tests used were the maximal electroshock (MES) seizure test, the 6 Hz minimal clonic seizure test, and the corneal kindled mouse test. The chemical test was the s.c. metrazol seizure tests. Time of peak effect (TPE) is deduced from data generated in initial qualitative test procedures. Five groups of 4 animals each are administered the test compound, and each group is tested at one of five different time intervals: ¼, ½, 1, 2 and 4 h. The time point at which the compound produces the most activity/toxicity was chosen as TPE.
as §5

Sequence of hA3AR (P0DMS8 whole entry): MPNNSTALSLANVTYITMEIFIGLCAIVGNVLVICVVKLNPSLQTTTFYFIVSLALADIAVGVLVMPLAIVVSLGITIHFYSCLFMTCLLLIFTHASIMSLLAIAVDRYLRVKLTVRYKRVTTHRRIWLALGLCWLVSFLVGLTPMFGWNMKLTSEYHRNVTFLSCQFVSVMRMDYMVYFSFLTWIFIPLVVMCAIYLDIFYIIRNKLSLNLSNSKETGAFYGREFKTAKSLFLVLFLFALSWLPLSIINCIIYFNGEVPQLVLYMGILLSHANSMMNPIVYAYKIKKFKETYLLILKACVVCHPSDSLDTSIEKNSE
Sequence of human A3AR (P0DMS8 whole entry): as above
Sequence of hA2AAR (P29274 whole entry): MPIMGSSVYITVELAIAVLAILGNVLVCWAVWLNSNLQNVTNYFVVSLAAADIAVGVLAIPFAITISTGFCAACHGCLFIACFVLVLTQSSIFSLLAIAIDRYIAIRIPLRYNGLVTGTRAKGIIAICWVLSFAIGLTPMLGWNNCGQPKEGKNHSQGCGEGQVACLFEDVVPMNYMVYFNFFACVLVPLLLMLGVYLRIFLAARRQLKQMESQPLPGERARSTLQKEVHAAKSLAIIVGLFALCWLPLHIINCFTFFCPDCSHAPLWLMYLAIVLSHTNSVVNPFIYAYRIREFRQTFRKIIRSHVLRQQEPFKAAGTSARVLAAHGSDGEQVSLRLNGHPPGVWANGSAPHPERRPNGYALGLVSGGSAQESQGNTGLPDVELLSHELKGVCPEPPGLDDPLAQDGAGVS
Sequence of human A2A receptors (P29274 whole entry): as above
Sequence of human A1 receptors (P30542 whole entry): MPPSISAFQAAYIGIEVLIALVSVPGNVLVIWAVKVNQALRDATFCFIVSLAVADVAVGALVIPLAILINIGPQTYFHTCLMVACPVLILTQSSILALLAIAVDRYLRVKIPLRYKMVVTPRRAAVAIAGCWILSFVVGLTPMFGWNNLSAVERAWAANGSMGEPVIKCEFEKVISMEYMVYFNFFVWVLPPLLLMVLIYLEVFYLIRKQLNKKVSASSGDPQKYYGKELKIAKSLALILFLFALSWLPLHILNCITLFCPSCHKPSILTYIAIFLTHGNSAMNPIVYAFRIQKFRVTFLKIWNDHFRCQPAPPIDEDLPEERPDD
T1 sequence (P30542 whole entry): as above

Row | Compound | inhibition at 10 µM (hA1AR [1]) [%] | Ki (hA2AAR) [nM] | Ki (hA1AR [2]) [nM] | Ki (hA3AR) [nM] | further results
1 | O[C@@H]1[C@H](O)[C@@H]2C[C@@H]2[C@H]1n1cnc2c(NCc3cccc(Cl)c3)nc(Cl)nc21 [Compound 8b, (1′R,2′R,3′S,4′R,5′S)-4′-[2-Chloro-6-(3-chlorobenzylamino)purine]-2′,3′-O-dihydroxybicyclo-[3.1.0]hexane] | – | – | – | – | Ki (human A2A receptors): 4510 ± 910 nM; % Efficacy A3 (human A3AR): 2.9 ± 3.7%; Ki (human A1 receptors): 3070 ± 1500 nM
2 | COc1ccc(O)c(CNc2nc(Cl)nc3c2ncn3[C@H]2[C@H](O)[C@H](O)[C@@H]3C[C@@H]32)c1 [Compound 12b, (1′R,2′R,3′S,4′R,5′S)-4′-[2-Chloro-6-(2-hydroxy-5-methoxybenzylamino)purine]-2′,3′-O-dihydroxybicyclo-[3.1.0]hexane] | – | – | – | – | Ki (human A2A receptors): 6870 ± 1440 nM; % Efficacy A3 (human A3AR): 0.4 ± 1.3%; Ki (human A1 receptors): 1110 ± 300 nM
3 | O[C@@H]1[C@H](O)[C@@H]2C[C@@H]2[C@H]1n1cnc2c(N[C@@H]3C[C@H]3c3ccccc3)nc(Cl)nc21 (relative stereo) [Compound 13b, (1′R,2′R,3′S,4′R,5′S)-4′-[2-Chloro-6-(trans-2-phenylcyclopropylamino)purine]-2′,3′-O-dihydroxybicyclo-[3.1.0]hexane] | – | – | – | – | % Efficacy A3 (human A3AR): 9.7 ± 4.1%
4 | Nc1nc(Cl)nc2c1ncn2[C@H]1[C@H](O)[C@H](O)[C@@H]2C[C@@H]21 [Compound 107, (1R,2R,3S,4R,5S)-4-(6-Amino-2-chloro-9H-purin-9-yl)-bicyclo[3.1.0]hexane-2,3-diol] | 68.1 ± 4.4 | 3140 ± 450 | 350 ± 90 | 160 ± 42 | –
5 | O[C@@H]1[C@H](O)[C@@H]2C[C@@H]2[C@H]1n1cnc2c(NC3CCCCCC3)nc(Cl)nc21 [Compound 111, (1R,2R,3S,4R,5S)-4-(2-Chloro-6-(cycloheptylamino)-9H-purin-9-yl)bicyclo[3.1.0]hexane-2,3-diol] | 48.1 ± 10.2 | 3930 ± 520 | 230 ± 30 | 560 ± 90 | –
6 | CC(C)[C@H](Nc1nc(Cl)nc2c1ncn2[C@H]1[C@H](O)[C@H](O)[C@@H]2C[C@@H]21)C1CC1 [Compound 215, (1R,2R,3S,4R,5S)-4-(2-Chloro-6-((S)-1-cyclopropyl-2-methyl-propylamino)-9H-purin-9-yl)bicyclo[3.1.0]hexane-2,3-diol] | 20.8 ± 6.1 | 3650 ± 370 | 150 ± 50 | 1720 ± 140 | –
7 | O[C@@H]1[C@H](O)[C@@H]2C[C@@H]2[C@H]1n1cnc2c(NCc3cccc(Br)c3)nc(Cl)nc21 [Compound 9b, (1′R,2′R,3′S,4′R,5′S)-4′-[2-Chloro-6-(3-bromobenzylamino)purine]-2′,3′-O-dihydroxybicyclo-[3.1.0]hexane] | – | – | – | – | Ki (human A1 receptors): 1760 ± 1010 nM
8 | CC(C)Nc1nc(Cl)nc2c1ncn2[C@H]1[C@H](O)[C@H](O)[C@@H]2C[C@@H]21 [Compound 117, (1R,2R,3S,4R,5S)-4-(2-Chloro-6-(isopropylamino)-9H-purin-9-yl)bicyclo[3.1.0]hexane-2,3-diol] | 50.5 ± 6.4 | – | 72.2 ± 16.4 | 12 ± 1 | (% inhibition) A2A (hA2AAR; percent inhibition of radioligand binding at 10 μM): (39%)
9 | COc1ccc(OC)c(CNc2nc(Cl)nc3c2ncn3[C@H]2[C@H](O)[C@H](O)[C@@H]3C[C@@H]32)c1 [Compound 11b, (1′R,2′R,3′S,4′R,5′S)-4′-[2-Chloro-6-(2,5-dimethoxybenzylamino)purine]-2′,3′-O-dihydroxybicyclo-[3.1.0]hexane] | – | – | – | – | Ki (human A2A receptors): 2620 ± 730 nM; % Efficacy A3 (human A3AR): 4.6 ± 3.8%
10 | CC[C@@H](Nc1nc(Cl)nc2c1ncn2[C@H]1[C@H](O)[C@H](O)[C@@H]2C[C@@H]21)C1CC1 [Compound 212, (1R,2R,3S,4R,5S)-4-(2-Chloro-6-((R)-1-cyclopropylpropylamino)-9H-purin-9-yl)bicyclo[3.1.0]hexane-2,3-diol] | 37.3 ± 4.3 | 3610 ± 500 | 68.1 ± 5 | 150 ± 2 | –
11 | OC[C@H]1O[C@@H](n2cnc3c(NC4CCCC4)nc(Cl)nc32)[C@H](O)[C@@H]1O [Compound 235b, 2-chloro-N^6-cyclopentyladenosine] | – | – | – | – | scMET model, number of animals protected from convulsions [3]: 1 out of 4; ED50 ([4]; Mus musculus, ip, read-out: 6 Hz model ED50): 0.12 mg/kg; 6 Hz model ED50 [4]: 0.12^c mg/kg; Behavioral toxicity TD50 (mice): 0.84 mg/kg and 0.84^c mg/kg; MES model, number of animals protected from convulsions (MES seizures in mice): 1 out of 4 at
12 | O[C@@H]1[C@H](O)[C@@H]2C[C@@H]2[C@H]1n1cnc2c(NC3CCCCC3)nc(Cl)nc21 [Compound 110, (1R,2R,3S,4R,5S)-4-(2-Chloro-6-(cyclohexylamino)-9H-purin-9-yl)bicyclo[3.1.0]hexane-2,3-diol] | 38 ± 17.6 | 2720 ± 450 | 140 ± 10 | 500 ± 120 | –
13 | (1R,2R,3S,4R,5S)-4-(2-Chloro-6-(endo-norbornyl)-9H-purin-9-yl)bicyclo[3.1.0]hexane-2,3-diol [Compound 113] | – | 2450 ± 90 | 82.6 ± 15.8 | 315 ± 48 | % Inhibition, cyclic AMP A1 (hA1AR [1]; maximal efficacy at 10 μM, in comparison to effect (100%) of full agonist CPA at 10 μM, n = 3-5): 62.1 ± 18.5%
14 | CC[C@H](Nc1nc(Cl)nc2c1ncn2[C@H]1[C@H](O)[C@H](O)[C@@H]2C[C@@H]21)C1CC1 [Compound 213, (1R,2R,3S,4R,5S)-4-(2-Chloro-6-((S)-1-cyclopropylpropylamino)-9H-purin-9-yl)bicyclo[3.1.0]hexane-2,3-diol] | 57.9 ± 1.1 | 4910 ± 430 | 150 ± 10 | 780 ± 70 | –
15 | O[C@@H]1[C@H](O)[C@@H]2C[C@@H]2[C@H]1n1cnc2c(NC3CC3)nc(Cl)nc21 [Compound 108, (1R,2R,3S,4R,5S)-4-(2-Chloro-6-(cyclopropylamino)-9H-purin-9-yl)bicyclo[3.1.0]hexane-2,3-diol] | 79 ± 18.8 | 3700 ± 340 | 210 ± 30 | 12.1 ± 3.4 | –
